In US7875638B2, “Synthesis of epothilones, intermediates thereto, analogues and uses thereof” (Sloan-Kettering Institute for Cancer Research, priority 2002, dated 2011):

Assays:
[1] = test system: paclitaxel resistant human lung carcinoma A549/Taxol xenograft; conditions: 20 mg/kg
[2] = test system: human colon carcinoma HCT-116 xenograft; conditions: 96 h
[3] = test system: paclitaxel resistant human lung carcinoma A549/Taxol xenograft; conditions: 20 mg/kg, Q2Dx7, 6 hr-i.v. infusion; cited from earlier work

C/C(=C\c1csc(C)n1)[C@@H]1C/C=C(/C(F)(F)F)C/C=C/[C@H](C)[C@H](O)[C@@H](C)C(=O)C(C)(C)[C@@H](O)CC(=O)O1 [Compound 29, 26-trifluoro-trans-9,10-dehydro-12,13-desoxyepothilone B]
Tumor reduction, % of the pretreatment control [1]: 24.4% | Cell kill [2]: > 11.6 log | Effect on A549/Taxol xenograft (recent report) [3]: complete tumor growth suppression but failed to achieve tumor disappearance
